Three substances from patent US9410152B2, “Use of microrna molecules to influence skin pigmentation” (CHANEL PARFUMS BEAUTE, priority 2011, dated 2016) can be followed below.

Holding throughout (assay type): cell-based, human
For data set [1], the system named is TYR proteins. As to the kind of experiment: Western blot of TYR protein. The note with it: MNT-1 cells, 50 nM mimetic, day 12. The procedure:
(§1) 4×10^5 MNT-1 cells were seeded per well in a 6-well plate (#353046, Falcon) on day-1. On day 0, the cells were transfected with 50 nM of mimetic of the miRNAs (hsa-mir-137 # C-300604-07-005, hsa-mir-7 # C-300547-05-0005, hsa-mir-330-5p # C-301082-01-0005, negative control # NC-002000-01-05, Dharmacon), using 5 μL of Lipofectamine 2000 (#1668-019, Invitrogen). On day 1, the medium was changed. On day 3, the cells were trypsinized and seeded at 4×10^5 cells per well. On day 4, the cells were transfected again with 50 nM of mimetic of the miRNAs (see day 0). On day 5, the medium was changed. On day 7, the cells were trypsinized and seeded at 4×10^5 cells per well. On day 8, the cells were transfected with 50 nM of mimetic of the miRNAs (see day 0). On day 9, the medium was changed. On day 10, the cells were trypsinized and divided into two (from one by six wells to two by six wells). On day 12, one six-well plate was used for lysis of the RNA and the other for lysis of the proteins. As positive control of depigmentation, MNT-1 cells were incubated with 3.5 mM of kojic acid (Sigma K3125-5G) for 12 days. The cells were distributed as described and the kojic acid was renewed with the medium every 4 days. The percentage inhibition of the kojic acid is of the order of 10%. […] The concentration of proteins was determined with the BCA Protein Assay (ThermoFisher). […]
On the technique in general: In western blotting, separated proteins are transferred to a membrane and probed.

Data set [2] relates to mRNA TYRP1. In words: qRT-PCR mRNA expression of TYRP1. The note with it: MNT-1 cells, 50 nM mimetic, day 12, relative to cel-miR-239b, ΔΔCt. The procedure:
(§2) 4×10^5 MNT-1 cells were seeded per well in a 6-well plate (#353046, Falcon) on day-1. On day 0, the cells were transfected with 50 nM of mimetic of the miRNAs (hsa-mir-137 # C-300604-07-005, hsa-mir-7 # C-300547-05-0005, hsa-mir-330-5p # C-301082-01-0005, negative control # NC-002000-01-05, Dharmacon), using 5 μL of Lipofectamine 2000 (#1668-019, Invitrogen). On day 1, the medium was changed. On day 3, the cells were trypsinized and seeded at 4×10^5 cells per well. On day 4, the cells were transfected again with 50 nM of mimetic of the miRNAs (see day 0). On day 5, the medium was changed. On day 7, the cells were trypsinized and seeded at 4×10^5 cells per well. On day 8, the cells were transfected with 50 nM of mimetic of the miRNAs (see day 0). On day 9, the medium was changed. On day 10, the cells were trypsinized and divided into two (from one by six wells to two by six wells). On day 12, one six-well plate was used for lysis of the RNA and the other for lysis of the proteins. As positive control of depigmentation, MNT-1 cells were incubated with 3.5 mM of kojic acid (Sigma K3125-5G) for 12 days. The cells were distributed as described and the kojic acid was renewed with the medium every 4 days. The percentage inhibition of the kojic acid is of the order of 10%. 700 μL of Qiazol lysis buffer (Qiagen) was added per well of a six-well dish after washing the cells twice with PBS. The total RNA was isolated using the miRNeasy Mini kit (Qiagen) according to the manufacturer's protocol. The total RNA was eluted in 30 μl of water without RNAse. The concentration of RNA was measured using the NanoVue spectrophotometer (GE Healthcare). 1 μg of total RNA was reverse-transcribed using the MLV RT-Enzyme system (Invitrogen) in 60 μL of reaction to produce the corresponding cDNA. […] The concentrations of primers and the sequences are given in Table 5 below: The relative quantity was evaluated using the ΔΔCt comparative method. Briefly, this method compares the quantity of expression of the target gene relative to an endogenous control TBP, within a sample for normalizing the expression. […]

In data set [3] the test system is MITF. As to the kind of experiment: Western blot of MITF protein. To be noted: MNT-1 cells, 50 nM mimetic, day 12. The procedure: as §1
In data set [4] the test system is mRNA MITF-M. As to the kind of experiment: qRT-PCR mRNA expression of MITF-M. To be noted: MNT-1 cells, 50 nM mimetic, day 12, relative to cel-miR-239b, ΔΔCt. The procedure:
as §2

Data set [5] has as its system mRNA MLANA. In words: qRT-PCR mRNA expression of MLANA. The note with it: MNT-1 cells, 50 nM mimetic, day 12, relative to cel-miR-239b, ΔΔCt. The procedure: as §2

Entries after “also recorded” stand apart in the source; their conditions may differ.

For the substance “hsa-miR-7: mimetic of miRNA hsa-mir-7 (Dharmacon C-300547-05-0005); mature hsa-miR-7-5p sequence SEQ ID NO: 2 (UGGAAGACUAGUGAUUUUGUUGU; commercial mimic, chemistry not given here; listed as Homo sapiens)”, the “content of TYR proteins (Western blot)” value in data set [1] was “decreases”. The “levels of mRNA TYRP1” value in data set [2] (listed as miR-7) is recorded as “appears to reduce; also recorded: slightly reduced”. In addition, the “level of protein MITF (Western blot)” value in data set [3] is recorded as “decreases”. Besides, the “levels of mRNA MITF-M” value in data set [4] (listed as miR-7) is reported as “appears to reduce; also recorded: slightly reduced”. In addition, in data set [5] (listed as miR-7), the “levels of mRNA MLANA” value is listed as “appears to reduce; also recorded: slightly reduced”.

As to “hsa-miR-137: mimetic of miRNA hsa-mir-137 (Dharmacon C-300604-07-005); mature sequence SEQ ID NO: 3 (UUAUUGCUUAAGAAUACGCGUAG; commercial mimic, chemistry not given here; listed as Homo sapiens)”, the “levels of mRNA TYRP1” value is listed as “significantly reduced” in data set [2] and “considerably reduced” in data set [2] (listed as miR-137). The “level of protein MITF (Western blot)” value in data set [3] was “eliminates”. Further, the “levels of mRNA MITF-M” value is given as “significantly reduced” in data set [4] and “considerably reduced” in data set [4] (listed as miR-137). Besides, the “levels of mRNA MLANA” value is listed as “significantly reduced” in data set [5] and “considerably reduced” in data set [5] (listed as miR-137).

Take “hsa-miR-330-5p: mimetic of miRNA hsa-mir-330-5p (Dharmacon C-301082-01-0005); mature sequence 5'-UCUCUGGGCCUGUGUCUUAGGC-3' (SEQ ID NO: 1) (UCUCUGGGCCUGUGUCUUAGGC; mimic duplex, passenger strand not given here; listed as Homo sapiens)”: the “content of TYR proteins (Western blot)” value in data set [1] is reported as “decreased”.
